Each structure is given as a SMILES string.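 A five-concentration, 48-hour dose response in 96-well plates underlies each endpoint, interpolated linearly between surrounding concentrations. TGI: concentration producing complete growth inhibition.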

This passage reports TGI results from PubChem BioAssay (NCI).

Some test systems named below: NCI-H522 lung; OVCAR-8 ovarian; NCI-H23 lung; SK-OV-3 ovarian; NCI-H460 lung; HL-60(TB) leukemia; SF-539 CNS; MDA-MB-435; HCT-15 colon; TK-10 renal.
What all share (experiment): NCI anticancer screen, dose series, 48 h

As for `O=C(O)c1nc(-c2ccccc2)ncc1-c1nnnn1-c1ccccc1`, the TGI in the test on NCI-H522 lung, in the test with OVCAR-8 ovarian, in the test on NCI-H23 lung, with SK-OV-3 ovarian, with NCI-H460 lung and with HL-60(TB) leukemia was over 100 µM each time. Further, the TGI in the test on SF-539 CNS, in the test on MDA-MB-435, in the test on HCT-15 colon and in the test with TK-10 renal was over 100 µM each time.
As for `O=[N+]([O-])c1ccc(Cl)c(C=NC23CC4CC(CC(C4)C2)C3)c1`, the TGI in the test with NCI-H522 lung is over 10 µM; in the test on OVCAR-8 ovarian, over 7.79 µM; in the test with NCI-H23 lung, over 10 µM; with SK-OV-3 ovarian it was over 10 µM; with NCI-H460 lung, over 10 µM; in the test on HL-60(TB) leukemia, 4.46 µM. For the same molecule, the TGI with SF-539 CNS was 9.9 µM; in the test with MDA-MB-435 it was over 10 µM; in the test with HCT-15 colon, over 10 µM; in the test on TK-10 renal, over 10 µM.
As to `CCN(CC)c1c(N(CC)CC)c(=O)c1=O`, the TGI in the test on NCI-H522 lung was 4.86 µM; in the test with OVCAR-8 ovarian, 27.6 µM; with NCI-H23 lung, 26.7 µM; with SK-OV-3 ovarian, over 100 µM; in the test with NCI-H460 lung, over 78.2 µM; in the test on HL-60(TB) leukemia, 7.58 µM. Also, the TGI is 19 µM in the test on SF-539 CNS, 60.9 µM in the test with MDA-MB-435, 17 µM with HCT-15 colon and 8.7 µM with TK-10 renal.
As for `Cc1cc(C)c(S(=O)(=O)N2CCCN(S(=O)(=O)c3c(C)cc(C)cc3C)OCCCON(S(=O)(=O)c3c(C)cc(C)cc3C)CCCN(S(=O)(=O)c3c(C)cc(C)cc3C)OCCCO2)c(C)c1`, the TGI in the test on NCI-H522 lung, with OVCAR-8 ovarian, in the test with NCI-H23 lung, in the test with SK-OV-3 ovarian, with NCI-H460 lung and in the test on HL-60(TB) leukemia was over 100 µM each time. Besides, the TGI in the test on SF-539 CNS, in the test on MDA-MB-435, in the test with HCT-15 colon and in the test with TK-10 renal was over 100 µM in each case.
Consider `O=[N+]([O-])c1ccc(/C=N/n2c(CO)nc3ccccc32)o1`, for which the TGI in the test on NCI-H522 lung amounted to 4.43 µM; in the test on OVCAR-8 ovarian, 25.3 µM; in the test on NCI-H23 lung, 20 µM; with SK-OV-3 ovarian, 71.9 µM; in the test with NCI-H460 lung, 16.3 µM; in the test with HL-60(TB) leukemia it was 9.41 µM. For the same molecule, the TGI amounted to 55 µM in the test with SF-539 CNS, 13.9 µM with MDA-MB-435, 15.7 µM in the test with HCT-15 colon and 19.2 µM in the test on TK-10 renal.
Take `CCC1(CC)SCc2nc3ccccc3n21`: the TGI was 94.4 µM in the test on NCI-H522 lung; over 100 µM in the test on OVCAR-8 ovarian; over 100 µM in the test with NCI-H23 lung; over 100 µM with SK-OV-3 ovarian; over 100 µM in the test on NCI-H460 lung; 59.5 µM in the test with HL-60(TB) leukemia. Moreover, the TGI in the test on SF-539 CNS was over 100 µM; with MDA-MB-435, 68 µM; in the test on HCT-15 colon it was over 100 µM; with TK-10 renal it was over 100 µM.
For `NC(Cc1cccc([N+](=O)[O-])c1)C(=O)O` (stereo not drawn), the TGI in the test with NCI-H522 lung, in the test on OVCAR-8 ovarian, in the test on NCI-H23 lung, with SK-OV-3 ovarian, in the test on NCI-H460 lung and in the test with HL-60(TB) leukemia was over 100 µM in each case. In addition, the TGI in the test on SF-539 CNS, in the test with MDA-MB-435, in the test with HCT-15 colon and with TK-10 renal was over 100 µM throughout.
Take `COc1ccc(CC2c3cc(Oc4cc(CC5c6cc(OC)c(OC)cc6CCN5C)ccc4O)c(OC)cc3CCN2C)cc1` (stereo not drawn): the TGI in the test on NCI-H522 lung was found to be 14.1 µM; in the test on OVCAR-8 ovarian, 13.4 µM; in the test with NCI-H23 lung, 15.4 µM; with SK-OV-3 ovarian, 16.5 µM; with NCI-H460 lung, 14.1 µM; with HL-60(TB) leukemia, 15.5 µM. The TGI in the test on SF-539 CNS amounted to 16.8 µM; with MDA-MB-435, 9.88 µM; in the test with HCT-15 colon, 4.6 µM; with TK-10 renal, 11 µM.
Regarding `COc1ccc(C(C)NNC(=O)c2ccncc2)c(OC)c1` (stereo not drawn), the TGI in the test with NCI-H522 lung, with OVCAR-8 ovarian, in the test on NCI-H23 lung, in the test with SK-OV-3 ovarian, in the test on NCI-H460 lung and with HL-60(TB) leukemia was over 100 µM throughout. Moreover, the TGI in the test with SF-539 CNS, in the test on MDA-MB-435, in the test on HCT-15 colon and in the test with TK-10 renal was over 100 µM each time.
As to `c1ccc2sc(C3(N4CCCC4)CCCCCC3)cc2c1`, the TGI is 33.3 µM in the test with NCI-H522 lung; 37 µM with OVCAR-8 ovarian; 40.6 µM with NCI-H23 lung; 35 µM in the test on SK-OV-3 ovarian; 30.1 µM in the test on NCI-H460 lung; 35.4 µM in the test on HL-60(TB) leukemia. In addition, the TGI turned out to be 41.2 µM in the test on SF-539 CNS, 31.7 µM in the test with MDA-MB-435, 56.5 µM in the test on HCT-15 colon and 45.1 µM in the test with TK-10 renal.
For `CCC(=O)NC(Nc1cccc(F)c1C)(C(F)(F)F)C(F)(F)F`, the TGI with NCI-H522 lung, in the test on OVCAR-8 ovarian, with NCI-H23 lung, with SK-OV-3 ovarian, with NCI-H460 lung and with HL-60(TB) leukemia was over 100 µM each time. Further, the TGI in the test on SF-539 CNS, in the test on MDA-MB-435, with HCT-15 colon and with TK-10 renal was over 100 µM each time.
For `CCc1nc(N)nc(N)c1-c1ccc(Cl)c(Cl)c1`, the TGI with NCI-H522 lung, in the test with NCI-H23 lung, in the test with SK-OV-3 ovarian, in the test on NCI-H460 lung, with HL-60(TB) leukemia and in the test on SF-539 CNS was over 100 µM throughout. Moreover, the TGI in the test on MDA-MB-435, in the test with HCT-15 colon and with TK-10 renal was over 100 µM each time.
`O=C(CC(=O)Nc1cccc(C(=O)O)c1)Nc1cccc(C(=O)O)c1`: the TGI in the test with NCI-H522 lung, in the test on OVCAR-8 ovarian, in the test on NCI-H23 lung, with NCI-H460 lung, with HL-60(TB) leukemia and in the test with SF-539 CNS was over 100 µM in each case. Also, the TGI in the test on MDA-MB-435, with HCT-15 colon and in the test with TK-10 renal was over 100 µM each time.
